Experimental data taken from ChEMBL document CHEMBL1139628, “Beta-lactam compounds as apparently uncompetitive inhibitors of HIV-1 protease” (Bioorg Med Chem Lett, 2005).

How the values were obtained:
[1] = molecular target: Human immunodeficiency virus type 1 protease (Human immunodeficiency virus 1) (UniProt Q72874); assay: Percent inhibition against human immunodeficiency virus 1 protease; parameters: concentration or dose not given beside the values; details: concentration not given here
[2] = molecular target: Human immunodeficiency virus type 1 protease (Human immunodeficiency virus 1) (UniProt Q72874); assay: Inhibitory activity against human immunodeficiency virus type I protease
[3] = molecular target: Human immunodeficiency virus type 1 protease (Human immunodeficiency virus 1, UniProt Q72874); assay: Inhibition constant against human immunodeficiency virus 1 protease
[4] = molecular target: Human immunodeficiency virus type 1 protease (Human immunodeficiency virus 1) (UniProt Q72874); assay: Ratio of Michaelis-Menten constant and catalytic constant against human immunodeficiency virus type I protease
[5] = molecular target: Human immunodeficiency virus type 1 protease (Human immunodeficiency virus 1) (UniProt Q72874); assay: Catalytic constant against human immunodeficiency virus typeI protease
[6] = molecular target: Human immunodeficiency virus type 1 protease (Human immunodeficiency virus 1) (UniProt Q72874); assay: Inhibitory activity against human immunodeficiency virus typeI protease

Row | Structure (SMILES) | inhibition [1] [%] | also measured
1 | COC(=O)CNC(=O)[C@H](c1ccccc1)N1C[C@H](C)C1=O | 63 | –
2 | CC(C)CNC(=O)C(Cc1ccccc1)N1CCC1=O (configuration not stated) | 65 | –
3 | CCCCNC(=O)C(Cc1ccccc1)N1C(=O)CC1c1ccccc1 (configuration not stated) | 74 | –
4 | CCC[C@@H](C(=O)NCC(=O)OC)N1C(=O)C[C@H]1c1ccccc1 | 68 | –
5 | CCCCNC(=O)C(c1ccccc1)N1C(=O)CC1c1ccccc1 (configuration not stated) | 63 | –
6 | CC1C(=O)N(C(C(=O)NCC2CCCCC2)c2ccccc2)C1C(=O)OCc1ccccc1 (configuration not stated) | 92 | –
7 | CC1CC(=O)N1C(Cc1ccccc1)C(=O)NCC1CCCCC1 (configuration not stated) | 71 | –
8 | CCCCNC(=O)C(CCC)N1C(=O)CC1c1ccccc1 (configuration not stated) | 93 | –
9 | CC1CN(C(C(=O)NCc2ccccc2)c2ccccc2)C1=O (configuration not stated) | 86 | –
10 | COC(=O)CNC(=O)[C@H](Cc1ccccc1)N1C(=O)C[C@H]1C(=O)N[C@@H](Cc1ccccc1)C(=O)OC | 69 | –
11 | O=C(NCC1N=Cc2cncnc21)C(Cc1ccccc1)N1C(=O)CC1C(=O)OCc1ccccc1 (configuration not stated) | 66 | –
12 | CC1CN(C(Cc2ccccc2)C(=O)NCC2N=Cc3cncnc32)C1=O (configuration not stated) | 71 | –
13 | O=C(OCc1ccccc1)C1CC(=O)N1C(C(=O)NCc1ccccc1)c1ccccc1 (configuration not stated) | 119 | –
14 | COC(=O)C(Cc1ccccc1)NC(=O)C1C(O)C(=O)N1C(C(=O)NCC1N=Cc2cncnc21)c1ccccc1 (configuration not stated) | 97 | inhibition [2]: 80 µM; Ki [3]: 63.2 µM; Ratio [4]: 0.155 mM⁻¹ s⁻¹; K cat [5]: 0.1 s⁻¹
15 | COC(=O)C(Cc1ccccc1)NC(=O)C1CC(=O)N1C(Cc1ccccc1)C(=O)NCC(C)C (configuration not stated) | 68 | –
16 | CC1CC(=O)N1C(Cc1ccccc1)C(=O)NCC1C=Nc2cncnc21 (configuration not stated) | 62 | –
17 | COC(=O)CNC(=O)C(c1ccccc1)N1C(=O)CC1C(=O)OCc1ccccc1 (configuration not stated) | 97 | Ki [3]: 1140 µM; inhibition [6]: 1000 µM; Ratio [4]: 0.157 mM⁻¹ s⁻¹; K cat [5]: 0.144 s⁻¹
18 | CC1CN(C(C(=O)NCC2N=Cc3cncnc32)c2ccccc2)C1=O (configuration not stated) | 76 | –
19 | CCCC(C(=O)NCC1N=Cc2cncnc21)N1C(=O)CC1C(=O)OCc1ccccc1 (configuration not stated) | 83 | –
20 | COC(=O)CNC(=O)[C@H](c1ccccc1)N1CCC1=O | 70 | –

Row | Structure (SMILES) | inhibition [1] [%] | also measured
21 | CCCC(C(=O)NCC1CCCCC1)N1C(=O)CC1C(=O)NC(Cc1ccccc1)C(=O)OC (configuration not stated) | 71 | –
22 | CCCC(C(=O)NCC1N=Cc2cncnc21)N1CCC1=O (configuration not stated) | 74 | –
23 | O=C(NCC1N=Cc2cncnc21)C(c1ccccc1)N1CCC1=O (configuration not stated) | 68 | –
24 | CCCCNC(=O)C(Cc1ccccc1)N1CC(C)C1=O (configuration not stated) | 78 | –
25 | O=C(NCc1ccccc1)C(Cc1ccccc1)N1CCC1=O (configuration not stated) | 65 | –
26 | O=C(NCc1ccccc1)C(c1ccccc1)N1C(=O)CC1c1ccccc1 (configuration not stated) | 75 | –
27 | CCCCNC(=O)C(c1ccccc1)N1C(=O)CC1C(=O)OCc1ccccc1 (configuration not stated) | 71 | –
28 | O=C(NCC1CCCCC1)C(c1ccccc1)N1CCC1=O (configuration not stated) | 79 | –
29 | CC1CC(=O)N1C(C(=O)NCC1CCCCC1)c1ccccc1 (configuration not stated) | 83 | –
30 | CCCC(C(=O)NCC(=O)OC)N1C(=O)C(C)C1C(=O)OCc1ccccc1 (configuration not stated) | 87 | –
31 | O=C(NCC1N=Cc2cncnc21)C(c1ccccc1)N1C(=O)CC1c1ccccc1 (configuration not stated) | 78 | –
32 | CC1CN(C(Cc2ccccc2)C(=O)NCC2CCCCC2)C1=O (configuration not stated) | 76 | –
33 | O=C(OCc1ccccc1)C1CC(=O)N1C(C(=O)NCC1N=Cc2cncnc21)c1ccccc1 (configuration not stated) | 97 | inhibition [2]: 60 µM; Ki [3]: 60.3 µM; Ratio [4]: 0.151 mM⁻¹ s⁻¹; K cat [5]: 0.126 s⁻¹
34 | CC(C)CNC(=O)C(Cc1ccccc1)N1CC(C)C1=O (configuration not stated) | 72 | –
35 | O=C(NCC1CCCCC1)C(Cc1ccccc1)N1CC(O)C1=O (configuration not stated) | 66 | –
36 | COC(=O)C(Cc1ccccc1)NC(=O)C1CC(=O)N1C(C(=O)NCC(C)C)c1ccccc1 (configuration not stated) | 71 | –
37 | CCC[C@@H](C(=O)NCC(=O)OC)N1C(=O)CC1C(=O)N[C@@H](Cc1ccccc1)C(=O)OC (some centres not stated) | 103 | –
38 | CCCCNC(=O)C(c1ccccc1)N1C(=O)CC1C(=O)NC(Cc1ccccc1)C(=O)OC (configuration not stated) | 86 | –
39 | CC1CC(=O)N1C(C(=O)NCc1ccccc1)c1ccccc1 (configuration not stated) | 67 | –
40 | COC(=O)CNC(=O)C(Cc1ccccc1)N1C(=O)CC1C(=O)OCc1ccccc1 (configuration not stated) | 67 | –
